# Key:
# wild-type HIV-1 PR = target: T1, wild-type HIV-1 PR (Human immunodeficiency virus type 1 group M subtype B, UniProt P04585); assay: In vitro HIV-1 PR activity assay (FRET); format: biochemical
# T1 construct: HIV-1 protease was cloned and heterologously expressed in Escherichia coli and purified; made in house; host or cells: Escherichia coli
# Procedure: (§1) The inhibitory effect of all new designed inhibitors were measured using fluorescence resonance energy transfer (FRET) method. […] The energy transfer donor (EDANS) and acceptor (DABCYL) dyes are labeled at two ends of the peptide to perform FRET. Excitation and emission wavelengths were set at 340 nm and 490 nm. Inhibitors were dissolved in dimethylsulfoxide (DMSO) and diluted to appropriate concentrations. HIV-1 protease was cloned and heterologously expressed in Escherichia coli and purified. The experiment was carried out in 96-well plates. The FRET assay reaction buffer contained 0.1 M sodium acetate, 1 M sodium chloride, 1 mM ethylenediaminetetraacetic acid (EDTA), 1 mM dithiothreitol (DTT), 2% DMSO and 1 mg/mL bovine serum albumin (BSA) with an adjusted pH 4.7. Protease and inhibitor were mixed and incubated for 20–30 mins at room temperature and then the substrate was added. Each reaction was recorded for about 10 mins. From plots of concentration versus the calculated percent inhibition, IC50 values were determined.
# as §1, with “20-30” for “20–30”, “mins.” for “mins. From plots of concentration versus the calculated percent inhibition, IC50 values were determined.”
# [1] = Cytotoxicity assay (cell counting kit-8); format: cell-based; details: human; 293T cells, CCK-8, 24h exposure
# Procedure: Selected inhibitors were further evaluated in cytotoxicity assay using a cell counting kit-8 assay. […] After 24h of culture, 1μL of drugs were added to each well. After another 24h of culture, 10 μL of CCK-8 was added to each well. Absorbance was quantified at wavelength 450 nm using an EnVision multilabel reader (PerkinElmer) after 2h at room temperature.
SMILES,IC50 (wild-type HIV-1 PR) [nM],melting point [°C],CC50 at 24 h [1] [nM]
"COc1ccc(S(=O)(=O)N(C[C@@H](O)[C@H](Cc2ccccc2)NC(=O)C2CCNCC2)C2CC2)cc1 [26a, N-((2S,3R)-4-((N-cyclopropyl-4-methoxyphenyl)sulfonamido)-3-hydroxy-1-phenylbutan-2-yl)piperidine-4-carboxamide]",155 ± 15.1,219.9 to 221.3,
"Nc1ccc(S(=O)(=O)N(C[C@@H](O)[C@H](Cc2ccccc2)NC(=O)C2CCNCC2)C2CC2)cc1 [26d, N-((2S,3R)-4-((4-amino-N-cyclopropylphenyl)sulfonamido)-3-hydroxy-1-phenylbutan-2-yl)piperidine-4-carboxamide]",245 ± 39.8,204.7 to 206.5,
"CN1CCC[C@@H](C(=O)N[C@@H](Cc2ccccc2)[C@H](O)CN(C2CC2)S(=O)(=O)c2ccc(N)cc2)C1 [24d, (R)-N-((2S,3R)-4-((4-amino-N-cyclopropylphenyl)sulfonamido)-3-hydroxy-1-phenylbutan-2-yl)-1-methylpiperidine-3-carboxamide]",16.3 ± 9.54,75.8 to 77.3,> 100000
"O=C(CN1CCCCC1)N[C@@H](Cc1ccccc1)[C@H](O)CN(C1CC1)S(=O)(=O)c1ccc(C(F)(F)F)cc1 [27b, N-((2S,3R)-4-((N-cyclopropyl-4-(trifluoromethyl)phenyl)sulfonamido)-3-hydroxy-1-phenylbutan-2-yl)-2-(piperidin-1-yl)acetamide]",52.7 ± 14.7,72.3 to 75.2,
"O=C(N[C@@H](Cc1ccccc1)[C@H](O)CN(C1CC1)S(=O)(=O)c1ccc([N+](=O)[O-])cc1)[C@H]1CCCNC1 [23c, (S)-N-((2S,3R)-4-((N-cyclopropyl-4-nitrophenyl)sulfonamido)-3-hydroxy-1-phenylbutan-2-yl)piperidine-3-carboxamide]",483 ± 103,155.9 to 157.2,
"O=C(N[C@@H](Cc1ccccc1)[C@H](O)CN(C1CC1)S(=O)(=O)c1ccc([N+](=O)[O-])cc1)[C@@H]1CCCNC1 [22c, (R)-N-((2S,3R)-4-((N-cyclopropyl-4-nitrophenyl)sulfonamido)-3-hydroxy-1-phenylbutan-2-yl)piperidine-3-carboxamide]",17 ± 8.12,196.8 to 198.4,> 100000
"O=C(N[C@@H](Cc1ccccc1)[C@H](O)CN(C1CC1)S(=O)(=O)c1ccc(C(F)(F)F)cc1)C1CCNCC1 [26b, N-((2S,3R)-4-((N-cyclopropyl-4-(trifluoromethyl)phenyl)sulfonamido)-3-hydroxy-1-phenylbutan-2-yl)piperidine-4-carboxamide]",124 ± 27.6,243.3 to 245.1,
"Nc1ccc(S(=O)(=O)N(C[C@@H](O)[C@H](Cc2ccccc2)NC(=O)[C@H]2CCCNC2)C2CC2)cc1 [23d, (S)-N-((2S,3R)-4-((4-amino-N-cyclopropylphenyl)sulfonamido)-3-hydroxy-1-phenylbutan-2-yl)piperidine-3-carboxamide]",313 ± 58.1,77.8 to 79.4,
"COc1ccc(S(=O)(=O)N(C[C@@H](O)[C@H](Cc2ccccc2)NC(=O)[C@H]2CCCNC2)C2CC2)cc1 [23a, (S)-N-((2S,3R)-4-((N-cyclopropyl-4-methoxyphenyl)sulfonamido)-3-hydroxy-1-phenylbutan-2-yl)piperidine-3-carboxamide]",433 ± 97.5,92.9 to 94.7,
"CN1CCC[C@H](C(=O)N[C@@H](Cc2ccccc2)[C@H](O)CN(C2CC2)S(=O)(=O)c2ccc(C(F)(F)F)cc2)C1 [25b, (S)-N-((2S,3R)-4-((N-cyclopropyl-4-(trifluoromethyl)phenyl)sulfonamido)-3-hydroxy-1-phenylbutan-2-yl)-1-methylpiperidine-3-carboxamide]",110 ± 27.2,102.7 to 104.6,
"COc1ccc(S(=O)(=O)N(C[C@@H](O)[C@H](Cc2ccccc2)NC(=O)CN2CCCCC2)C2CC2)cc1 [27a, N-((2S,3R)-4-((N-cyclopropyl-4-methoxyphenyl)sulfonamido)-3-hydroxy-1-phenylbutan-2-yl)-2-(piperidin-1-yl)acetamide]",228 ± 45,63.6 to 65.8,
"O=C(CN1CCCCC1)N[C@@H](Cc1ccccc1)[C@H](O)CN(C1CC1)S(=O)(=O)c1ccc([N+](=O)[O-])cc1 [27c, N-((2S,3R)-4-((N-cyclopropyl-4-nitrophenyl)sulfonamido)-3-hydroxy-1-phenylbutan-2-yl)-2-(piperidin-1-yl)acetamide]",288 ± 62,82.9 to 84.1,
"CN1CCC[C@H](C(=O)N[C@@H](Cc2ccccc2)[C@H](O)CN(C2CC2)S(=O)(=O)c2ccc(N)cc2)C1 [25d, (S)-N-((2S,3R)-4-((4-amino-N-cyclopropylphenyl)sulfonamido)-3-hydroxy-1-phenylbutan-2-yl)-1-methylpiperidine-3-carboxamide]",236 ± 36.5,76.8 to 78.5,
"CN1CCC[C@H](C(=O)N[C@@H](Cc2ccccc2)[C@H](O)CN(C2CC2)S(=O)(=O)c2ccc([N+](=O)[O-])cc2)C1 [25c, (S)-N-((2S,3R)-4-((N-cyclopropyl-4-nitrophenyl)sulfonamido)-3-hydroxy-1-phenylbutan-2-yl)-1-methylpiperidine-3-carboxamide]",523 ± 104,133.2 to 134.8,
"Nc1ccc(S(=O)(=O)N(C[C@@H](O)[C@H](Cc2ccccc2)NC(=O)CN2CCCCC2)C2CC2)cc1 [27d, N-((2S,3R)-4-((4-amino-N-cyclopropylphenyl)sulfonamido)-3-hydroxy-1-phenylbutan-2-yl)-2-(piperidin-1-yl)acetamide]",34.7 ± 12.5,144.4 to 146.2,
"O=C(N[C@@H](Cc1ccccc1)[C@H](O)CN(C1CC1)S(=O)(=O)c1ccc(C(F)(F)F)cc1)[C@H]1CCCNC1 [23b, (S)-N-((2S,3R)-4-((N-cyclopropyl-4-(trifluoromethyl)phenyl)sulfonamido)-3-hydroxy-1-phenylbutan-2-yl)piperidine-3-carboxamide]",264 ± 69.1,236.5 to 238.4,
"COc1ccc(S(=O)(=O)N(C[C@@H](O)[C@H](Cc2ccccc2)NC(=O)[C@H]2CCCN(C)C2)C2CC2)cc1 [25a, (S)-N-((2S,3R)-4-((N-cyclopropyl-4-methoxyphenyl)sulfonamido)-3-hydroxy-1-phenylbutan-2-yl)-1-methylpiperidine-3-carboxamide]",283 ± 36.4,88.9 to 91.2,
"CN1CCC[C@@H](C(=O)N[C@@H](Cc2ccccc2)[C@H](O)CN(C2CC2)S(=O)(=O)c2ccc([N+](=O)[O-])cc2)C1 [24c, (R)-N-((2S,3R)-4-((N-cyclopropyl-4-nitrophenyl)sulfonamido)-3-hydroxy-1-phenylbutan-2-yl)-1-methylpiperidine-3-carboxamide]",39.5 ± 11.9,159.9 to 161.2,
"O=C(N[C@@H](Cc1ccccc1)[C@H](O)CN(C1CC1)S(=O)(=O)c1ccc([N+](=O)[O-])cc1)C1CCNCC1 [26c, N-((2S,3R)-4-((N-cyclopropyl-4-nitrophenyl)sulfonamido)-3-hydroxy-1-phenylbutan-2-yl)piperidine-4-carboxamide]",268 ± 37.8,186.2 to 187.7,
